Test results taken from US10822338B2, “Substituted aminoquinazoline compounds as A2A antagonist” (Merck Sharp & Dohme Corp., priority 2015, dated 2020).

Biological target: human A2A receptor (Homo sapiens (Human), UniProt P29274)
Experiment: A2A competition binding assay using Scintillation Proximity technology
Conditions: 0.5 nM tritiated radioligand, Cheng-Prusoff
Experimental: Binding affinities of compounds of the invention for the human A2A receptor were determined in a competition binding assay using Scintillation Proximity technology. Thus, 1^μg (^ denotes 1 μg of membrane/well), or preferably 0.25 μg of membranes from HEK293 cells expressing the human A2a receptor were incubated with a compound of the invention at concentrations ranging from 3000 nM to 0.15 nM in a reaction mixture containing also 0.5 nM of a tritiated form of 5-amino-7-[2-phenethyl]-2-(furan-2-yl)-7H-pyrazolo[4,3-e][1,2,4]triazolo[1,5-c]pyrimidine (the tritiated compound) and 25 μg of wheat germ agglutin-coated yttrium silicate SPA beads for one hour at room temperature with agitation. The beads were then allowed to settle to the bottom of the wells for 1 hr, after which the membrane-associated radioactivity was determined by scintillation counting in a TopCount microplate reader. Ki values were determined using the Cheng-Prusoff equation.
HEK293 cells expressing the human, rat, dog or monkey adenosine 2a receptor (Purchased from Perkin-Elmer # RBHA2AM400UA).
The Tritiated compound was prepared in-house by MRL Radiochemistry according to published methods.
Wheat germ agglutinin-coated yttrium silicate SPA beads (GE Healthcare #RPNQ0023). Dilute to 25 mg/mL in assay buffer.
Assay Buffer was prepared in house: Dulbecco's calcium and magnesium free phosphate buffered saline+10 mM MgCl2
Adenosine deaminase from calf intestine, 10 mg/2 mL (Roche #10 102 105 001).
A2A antagonist standard (9-chloro-1-(2-furanyl)-[1,2,4]triazolo[1,5-c]quinazolin-5-amine from Tocris Bioscience)
Make eight 1:3 serial dilutions in 100% DMSO from a 3 mM compound stock
Transfer 50 nL of compound into a 384-well OptiPlate (Perkin Elmer).
Typically, final concentrations of compound used in the assay ranged from 3000 nM to 0.152 nM.
Dilute a solution of the Tritiated compound to 1.25 nM in assay buffer. This a 2.5× solution. The final concentration in the assay is 0.5 nM. Calculate the concentration by counting two 5 μL aliquots.
Use *1 ug or preferrably 0.25 ug of membrane/well. Dilute membranes to 9.7 μg/ml in assay buffer. Treat with 20 ug/ml adenosine deaminase (ADA) for 15 minutes at room temperature to degrade endogenous adenosine.
Use 25 μg/well wheat germ agglutinin-coated yttrium silicate SPA beads.
Mix ADA-treated membranes and SPA beads together for 30 min prior to assay.
To the Perkin-Elmer Optiplate-384 containing the compound titration add 20 μL of 2.5× solution of the Tritiated compound and 30 μL of the membrane-bead mixture. Incubate for one hour at room temperature with agitation.
Include total binding (assay buffer+1% DMSO) and non-specific binding (CGS15943, 1 μM) wells.
Allow the beads to settle for one hour.
A curve fitting program (i.e., Prism, Activity Base, Chemcart) is used to determine the EC50. The Ki value is calculated using the Cheng-Prusoff equation. Ki=EC50/(1+(radioligand concentration/Kd)) Counting and Calculations
Counting and calculations were performed as described within the “A2A Activity Binding of Compounds of the Invention” section. Using the foregoing methods, the following results were obtained using compounds of the invention described herein. Each example compound tested is reported in the following format: Example number: A2A Ki (nM) selectivity.

[1] = 0.25 μg of membranes from HEK293 cells expressing the human A2a receptor per well
[2] = values marked ^: 1 μg of membrane/well (HEK293 cells expressing the human A2a receptor)

Sequence of human A2A receptor (P29274 whole entry): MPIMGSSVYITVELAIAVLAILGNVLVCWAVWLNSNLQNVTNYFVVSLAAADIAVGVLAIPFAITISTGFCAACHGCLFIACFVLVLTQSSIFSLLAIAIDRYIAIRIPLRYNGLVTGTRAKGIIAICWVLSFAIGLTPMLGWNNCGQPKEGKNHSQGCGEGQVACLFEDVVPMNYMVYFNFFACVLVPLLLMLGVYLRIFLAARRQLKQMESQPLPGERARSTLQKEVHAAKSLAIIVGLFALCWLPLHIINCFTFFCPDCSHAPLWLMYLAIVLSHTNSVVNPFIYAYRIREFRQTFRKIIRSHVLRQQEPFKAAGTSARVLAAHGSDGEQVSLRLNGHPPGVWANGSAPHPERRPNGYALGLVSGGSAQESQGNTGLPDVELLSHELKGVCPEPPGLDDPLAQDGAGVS

| Ki [1] [nM] | Ki [2] [nM] | Structure (SMILES) |
| --- | --- | --- |
| 0.4 |  | COc1cccc2c1nc(N)n1nc([C@@H]3CCCN(CC(F)F)C3)nc21 [Example 3, (R)-2-(1-(2,2-difluoroethyl)piperidin-3-yl)-7-methoxy-[1,2,4]triazolo[1,5-c]quinazolin-5-amine] |
| 5.4 |  | COc1cccc2c1nc(N)n1nc([C@@H]3CCCN(CCN(C)C)C3)nc21 [Example 4, (R)-2-(1-(2-(dimethylamino)ethyl)piperidin-3-yl)-7-methoxy-[1,2,4]triazolo[1,5-c]quinazolin-5-amine] |
|  | 34 | CCN1CCC[C@@H](c2nc3c4cccc(OC)c4nc(N)n3n2)C1 [Example 5, (R)-2-(1-ethylpiperidin-3-yl)-7-methoxy-[1,2,4]triazolo[1,5-c]quinazolin-5-amine] |
| 3.1 |  | COCCN1CCC[C@@H](c2nc3c4cccc(OC)c4nc(N)n3n2)C1 [Example 6, (R)-7-methoxy-2-(1-(2-methoxyethyl)piperidin-3-yl)-[1,2,4]triazolo[1,5-c]quinazolin-5-amine] |
|  | 29 | CCCCN1CCC[C@@H](c2nc3c4cccc(OC)c4nc(N)n3n2)C1 [Example 7, (R)-2-(1-butylpiperidin-3-yl)-7-methoxy-[1,2,4]triazolo[1,5-c]quinazolin-5-amine] |
|  | 45 | COc1cccc2c1nc(N)n1nc([C@@H]3CCCN(CC(C)C)C3)nc21 [Example 8, (R)-2-(1-isobutylpiperidin-3-yl)-7-methoxy-[1,2,4]triazolo[1,5-c]quinazolin-5-amine] |
|  | 20 | C#CC(C)(C)N1CCC[C@@H](c2nc3c4cccc(OC)c4nc(N)n3n2)C1 [Example 9, (R)-7-methoxy-2-(1-(2-methylbut-3-yn-2-yl)piperidin-3-yl)-[1,2,4]triazolo[1,5-c]quinazolin-5-amine] |
| 33 |  | CCC(C)(C)N1CCC[C@@H](c2nc3c4cccc(OC)c4nc(N)n3n2)C1 [Example 31, (R)-7-methoxy-2-(1-(tert-pentyl)piperidin-3-yl)-[1,2,4]triazolo[1,5-c]quinazolin-5-amine] |
|  | 1.3 | COc1cccc2c1nc(N)n1nc([C@@H]3CCCN(C(=O)c4ccccc4)C3)nc21 [Example 37, (R)-(3-(5-amino-7-methoxy-[1,2,4]triazolo[1,5-c]quinazolin-2-yl)piperidin-1-yl)(phenyl)methanone] |
|  | 4.4 | COc1cccc2c1nc(N)n1nc([C@@H]3CCCN(C(=O)C(C)(C)C)C3)nc21 [Example 38, 2-((3R)-1-(2,2-dimethylpropanoyl)piperidin-3-yl)-7-methoxy[1,2,4]triazolo [1,5-c]quinazolin-5-amine] |

Further lines, the compound ahead of its results:

| Structure (SMILES) | Ki [1] [nM] | Ki [2] [nM] |
| --- | --- | --- |
| COc1cccc2c1nc(N)n1nc([C@@H]3CCCN(CCC(F)(F)F)C3)nc21 [Example 1, (R)-7-methoxy-2-(1-(3,3,3-trifluoropropyl)piperidin-3-yl)-[1,2,4]triazolo[1,5-d]quinazolin-5-amine] | 0.6 |  |
| COc1cccc2c1nc(N)n1nc([C@@H]3CCCN(CC(C(F)(F)F)C(F)(F)F)C3)nc21 [Example 2, (R)-7-methoxy-2-(1-(3,3,3-trifluoro-2-(trifluoromethyl)propyl)piperidin-3-yl)-[1,2,4]triazolo[1,5-c]quinazolin-5-amine] | 0.3 |  |
| COc1cccc2c1nc(N)n1nc([C@@H]3CCCN(CC4(C)CC4)C3)nc21 [Example 10, (R)-7-methoxy-2-(1-((1-methylcyclopropyl)methyl)piperidin-3-yl)-[1,2,4]triazolo[1,5-c]quinazolin-5-amine] | 20 |  |
| COc1cccc2c1nc(N)n1nc([C@@H]3CCCN(CCC(F)(F)C(F)(F)F)C3)nc21 [Example 11, (R)-7-methoxy-2-(1-(3,3,4,4,4-pentafluorobutyl)piperidin-3-yl)-[1,2,4]triazolo[1,5-c]quinazolin-5-amine] | 0.4 |  |
| COc1cccc2c1nc(N)n1nc([C@H]3CCCN(CCC(F)(F)F)C3)nc21 [Example 12, (S)-7-methoxy-2-(1-(3,3,3-trifluoropropyl)piperidin-3-yl)-[1,2,4]triazolo[1,5-c]quinazolin-5-amine] | 14 |  |
| COc1cccc2c1nc(N)n1nc([C@@H]3CCCNC3)nc21 [Example 13, (R)-7-methoxy-2-(piperidin-3-yl)-[1,2,4]triazolo[1,5-c]quinazolin-5-amine] | 93 |  |
| COc1cccc2c1nc(N)n1nc([C@@H]3CCCN(CCC4CC4)C3)nc21 [Example 14, (R)-2-(1-(2-cyclopropylethyl)piperidin-3-yl)-7-methoxy-[1,2,4]triazol[1,5-c]quinazolin-5-amine] | 6.9 |  |
| COc1cccc2c1nc(N)n1nc([C@@H]3CCCN(CCN4CCOCC4)C3)nc21 [Example 15, (R)-7-methoxy-2-(1-(2-morpholinoethyl)piperidin-3-yl)-[1,2,4]triazolo[1,5-c]quinazolin-5-amine] | 1.5 |  |
| COc1cccc2c1nc(N)n1nc([C@@H]3CCCN(CCCC(F)(F)F)C3)nc21 [Example 16, (R)-7-methoxy-2-(1-(4,4,4-trifluorobutyl)piperidin-3-yl)-[1,2,4]triazolo[1,5-c]quinazolin-5-amine] |  | 7.6 |
| COc1cccc2c1nc(N)n1nc([C@@H]3CCCN(CC4CC(F)(F)C4)C3)nc21 [Example 17, (R)-2-(1-((3,3-difluorocyclobutyl)methyl)piperidin-3-yl)-7-methoxy-[1,2,4]triazolo[1,5-c]quinazolin-5-amine] | 0.7 |  |
| COc1cccc2c1nc(N)n1nc([C@@H]3CCCN(CC4(C)COC4)C3)nc21 [Example 18, (R)-7-methoxy-2-(1-((3-methyloxetan-3-yl)methyl)piperidin-3-yl)-[1,2,4]triazolo[1,5-d]quinazolin-5-amine] | 3 |  |
| COc1cccc2c1nc(N)n1nc([C@@H]3CCCN(c4nnc(C)s4)C3)nc21 [Example 19, (R)-7-methoxy-2-(1-(5-methyl-1,3,4-thiadiazol-2-yl)piperidin-3-yl)-[1,2,4]triazolo[1,5-c]quinazolin-5-amine] |  | 2 |
| COc1cccc2c1nc(N)n1nc([C@@H]3CCCN(c4nncs4)C3)nc21 [Example 20, (R)-2-(1-(1,3,4-thiadiazol-2-yl)piperidin-3-yl)-7-methoxy-[1,2,4]triazolo[1,5-c]quinazolin-5-amine] |  | 1.9 |
| COc1cccc2c1nc(N)n1nc([C@@H]3CCCN(c4ncns4)C3)nc21 [Example 21, (R)-2-(1-(1,2,4-thiadiazol-5-yl)piperidin-3-yl)-7-methoxy-[1,2,4]triazolo[1,5-c]quinazolin-5-amine] |  | 3.2 |
| COc1cccc2c1nc(N)n1nc([C@@H]3CCCN(c4ncc(C)s4)C3)nc21 [Example 22, (R)-7-methoxy-2-(1-(5-methylthiazol-2-yl)piperidin-3-yl)-[1,2,4]triazolo[1,5-c]quinazolin-5-amine] |  | 0.8 |
| COc1cccc2c1nc(N)n1nc([C@@H]3CCCN(CC(F)(F)F)C3)nc21 [Example 23, (R)-7-methoxy-2-(1-(2,2,2-trifluoroethyl)piperidin-3-yl)-[1,2,4]triazolo[1,5-c]quinazolin-5-amine] | 0.8 |  |
| Nc1nc2c(OC(F)F)cccc2c2nc([C@@H]3CCCN(CC(F)F)C3)nn12 [Example 25, (R)-2-(1-(2,2-difluoroethyl)piperidin-3-yl)-7-(difluoromethoxy)-[1,2,4]triazolo[1,5-c]quinazolin-5-amine] | 1.2 |  |
| Nc1nc2cc(Cl)ccc2c2nc([C@@H]3CCCN(CC(F)F)C3)nn12 [Example 26, (R)-8-chloro-2-(1-(2,2-difluoroethyl)piperidin-3-yl)-[1,2,4]triazolo[1,5-c]quinazolin-5-amine] | 1.3 |  |
| Nc1nc2ccccc2c2nc([C@@H]3CCCN(CC(F)F)C3)nn12 [Example 28, (R)-2-(1-(2,2-difluoroethyl)piperidin-3-yl)-[1,2,4]triazolo[1,5-c]quinazolin-5-amine] | 11 |  |
| COc1cccc2c1nc(N)n1nc([C@@H]3CCCN(S(=O)(=O)c4ccccc4)C3)nc21 [Example 36, (R)-7-methoxy-2-(1-(phenylsulfonyl)piperidin-3-yl)-[1,2,4]triazolo[1,5-c]quinazolin-5-amine] |  | 1.2 |
